Where two headings read alike, the source gives them in different places.
Tests used:
SMARCA2 = SMARCA2 (Homo sapiens, UniProt P51531); test: HiBiT assay for protein degradation, Hela SMARCA2-HiBiT cells (A series); assay type: cell-based; set-up: Hela cells were genetically modified via CRISPR/Cas9 to fuse HiBiT to the carboxy terminus of SMARCA2; host or cells: HeLa (CRISPR/Cas9 HiBiT knock-in); conditions: for DC50: read-out: SMARC A2 Hela HiBit DC50; for Dmax: read-out: SMARC A2 Hela HiBit Dmax (%);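 on SMARC A2 Hela HiBit Dmax (%): 24 h compound treatment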
Chain of SMARCA2 (P51531 whole entry): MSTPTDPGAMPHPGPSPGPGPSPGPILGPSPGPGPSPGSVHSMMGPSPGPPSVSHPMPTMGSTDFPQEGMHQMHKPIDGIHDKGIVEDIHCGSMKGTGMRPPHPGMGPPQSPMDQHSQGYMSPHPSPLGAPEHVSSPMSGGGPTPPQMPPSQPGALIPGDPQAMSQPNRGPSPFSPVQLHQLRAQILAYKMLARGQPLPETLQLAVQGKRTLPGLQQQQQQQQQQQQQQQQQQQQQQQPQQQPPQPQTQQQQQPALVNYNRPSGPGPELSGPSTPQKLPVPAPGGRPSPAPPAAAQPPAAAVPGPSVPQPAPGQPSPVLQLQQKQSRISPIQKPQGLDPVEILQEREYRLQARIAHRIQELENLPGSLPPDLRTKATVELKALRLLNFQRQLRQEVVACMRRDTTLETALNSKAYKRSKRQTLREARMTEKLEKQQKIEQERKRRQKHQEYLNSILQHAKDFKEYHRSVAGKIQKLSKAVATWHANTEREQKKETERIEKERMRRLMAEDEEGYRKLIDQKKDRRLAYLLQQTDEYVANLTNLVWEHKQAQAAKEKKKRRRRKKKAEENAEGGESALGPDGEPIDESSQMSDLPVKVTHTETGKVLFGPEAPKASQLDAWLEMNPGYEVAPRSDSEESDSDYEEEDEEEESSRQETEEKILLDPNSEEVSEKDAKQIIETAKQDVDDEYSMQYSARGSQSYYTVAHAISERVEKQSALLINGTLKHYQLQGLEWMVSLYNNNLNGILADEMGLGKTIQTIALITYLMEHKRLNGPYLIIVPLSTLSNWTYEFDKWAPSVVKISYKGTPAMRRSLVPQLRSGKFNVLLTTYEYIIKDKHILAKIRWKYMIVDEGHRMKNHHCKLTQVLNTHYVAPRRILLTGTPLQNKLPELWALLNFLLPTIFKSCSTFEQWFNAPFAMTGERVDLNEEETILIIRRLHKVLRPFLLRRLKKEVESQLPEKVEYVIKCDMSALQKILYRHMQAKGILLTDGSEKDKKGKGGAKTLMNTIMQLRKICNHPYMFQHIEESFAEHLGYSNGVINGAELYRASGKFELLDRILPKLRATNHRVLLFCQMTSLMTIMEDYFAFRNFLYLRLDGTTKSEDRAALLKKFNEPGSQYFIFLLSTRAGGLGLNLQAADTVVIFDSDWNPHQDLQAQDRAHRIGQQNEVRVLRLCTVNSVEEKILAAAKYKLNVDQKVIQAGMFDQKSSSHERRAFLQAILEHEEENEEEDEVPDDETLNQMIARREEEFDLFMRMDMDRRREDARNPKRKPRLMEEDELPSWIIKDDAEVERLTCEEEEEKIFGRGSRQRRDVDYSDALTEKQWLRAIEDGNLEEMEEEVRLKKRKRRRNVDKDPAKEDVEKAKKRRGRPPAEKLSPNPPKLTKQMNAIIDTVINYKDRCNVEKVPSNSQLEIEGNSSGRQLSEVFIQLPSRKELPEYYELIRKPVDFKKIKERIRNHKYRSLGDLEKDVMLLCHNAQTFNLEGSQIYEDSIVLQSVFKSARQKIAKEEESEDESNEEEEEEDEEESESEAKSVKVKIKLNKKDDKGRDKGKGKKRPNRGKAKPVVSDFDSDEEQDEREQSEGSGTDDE
Procedure, shortened: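 SMARCA2 degradation was measured in HeLa cells whose endogenous SMARCA2 carries a carboxy-terminal HiBiT tag introduced by CRISPR/Cas9 (Promega CS302365). Cells were maintained in DMEM with FBS and penicillin-streptomycin. SMARCA2 levels were read at the end of the experiment by Nano-Glo® HiBiT lytic luminescence (Promega N3050) and analyzed in GraphPad Prism.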

SMARCA4 = SMARCA4 (Homo sapiens, UniProt P51532); test: HiBiT assay for protein degradation, Hela SMARCA4-HiBiT cells (A series); assay type: cell-based; set-up: fuse HiBiT to the carboxy terminus of SMARCA2 (Promega CS302365) or SMARCA4 (Promega CS3023225); host or cells: HeLa (CRISPR/Cas9 HiBiT knock-in); conditions: for DC50: read-out: SMARC A4 Hela HiBit DC50; for Dmax: read-out: SMARC A4 Hela HiBit Dmax(%)
Chain of SMARCA4 (P51532 whole entry): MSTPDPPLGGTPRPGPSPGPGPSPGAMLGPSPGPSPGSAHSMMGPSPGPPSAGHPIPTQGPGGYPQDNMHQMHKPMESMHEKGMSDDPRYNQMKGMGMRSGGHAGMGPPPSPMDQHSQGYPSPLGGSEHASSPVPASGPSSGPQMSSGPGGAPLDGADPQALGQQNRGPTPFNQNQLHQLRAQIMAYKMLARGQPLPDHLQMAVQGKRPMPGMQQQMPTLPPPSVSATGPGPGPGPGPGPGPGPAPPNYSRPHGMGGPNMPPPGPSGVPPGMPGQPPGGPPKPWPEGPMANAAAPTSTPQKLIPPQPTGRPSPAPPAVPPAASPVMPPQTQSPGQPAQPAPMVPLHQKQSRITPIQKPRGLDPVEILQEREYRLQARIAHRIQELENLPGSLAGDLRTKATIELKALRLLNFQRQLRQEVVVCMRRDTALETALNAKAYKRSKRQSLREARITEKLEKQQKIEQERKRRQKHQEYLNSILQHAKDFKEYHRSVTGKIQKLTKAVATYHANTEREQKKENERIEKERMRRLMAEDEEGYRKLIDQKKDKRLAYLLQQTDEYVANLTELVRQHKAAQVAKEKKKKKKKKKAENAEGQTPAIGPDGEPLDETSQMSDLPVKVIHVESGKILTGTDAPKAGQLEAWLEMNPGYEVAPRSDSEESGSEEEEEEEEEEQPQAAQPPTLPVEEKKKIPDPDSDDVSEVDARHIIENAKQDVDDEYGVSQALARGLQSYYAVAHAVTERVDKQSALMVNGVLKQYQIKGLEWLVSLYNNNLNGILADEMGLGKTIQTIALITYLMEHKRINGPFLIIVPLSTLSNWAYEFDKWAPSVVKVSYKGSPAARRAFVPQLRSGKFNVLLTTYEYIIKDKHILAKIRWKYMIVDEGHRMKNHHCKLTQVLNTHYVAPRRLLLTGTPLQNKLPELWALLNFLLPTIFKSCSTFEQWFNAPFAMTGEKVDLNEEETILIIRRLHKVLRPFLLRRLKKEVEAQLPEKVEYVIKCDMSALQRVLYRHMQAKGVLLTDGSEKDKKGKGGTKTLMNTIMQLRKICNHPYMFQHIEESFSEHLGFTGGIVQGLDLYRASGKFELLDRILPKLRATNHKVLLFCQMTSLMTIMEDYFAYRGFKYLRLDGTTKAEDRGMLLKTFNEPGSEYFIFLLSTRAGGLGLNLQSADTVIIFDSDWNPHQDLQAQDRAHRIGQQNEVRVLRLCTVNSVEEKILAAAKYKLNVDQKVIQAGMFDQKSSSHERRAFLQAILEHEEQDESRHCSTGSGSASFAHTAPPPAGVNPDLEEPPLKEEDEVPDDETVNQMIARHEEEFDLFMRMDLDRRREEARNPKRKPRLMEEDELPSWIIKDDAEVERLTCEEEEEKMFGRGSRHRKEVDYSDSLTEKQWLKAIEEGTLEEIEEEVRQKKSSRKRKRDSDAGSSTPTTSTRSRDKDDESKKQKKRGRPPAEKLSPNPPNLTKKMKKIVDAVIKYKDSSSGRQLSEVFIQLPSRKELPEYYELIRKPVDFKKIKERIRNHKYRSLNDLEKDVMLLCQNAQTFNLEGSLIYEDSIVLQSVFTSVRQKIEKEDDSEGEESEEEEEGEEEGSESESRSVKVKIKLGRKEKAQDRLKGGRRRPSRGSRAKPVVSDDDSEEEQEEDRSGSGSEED
Procedure, shortened: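 SMARCA4 degradation was measured in HeLa cells in which HiBiT had been knocked into the SMARCA4 carboxy terminus via CRISPR/Cas9 (Promega CS3023225). Cells were maintained in DMEM with FBS and penicillin-streptomycin. At the end of treatment, SMARCA4 levels were read by lytic HiBiT luminescence (Nano-Glo®, Promega N3050), and data were analyzed with GraphPad Prism.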

[1] = Hela SMARCA2-HiBiT cells, 24 hours treatment
[2] = Hela SMARCA4-HiBiT cells, 24 hours treatment

DC50 (SMARCA2; [1]) [nM] | Dmax (SMARCA2; [1]) [%] | DC50 (SMARCA4; [2]) [nM] | Dmax (SMARCA4; [2]) [%] | Structure (SMILES) | Dmax (SMARCA2; HeLa) [%] | DC50 (SMARCA2) [nM] | Dmax (SMARCA4; HeLa) [%] | DC50 (SMARCA4) [nM] | SMARC A4 Hela HiBit DC50(nM) (SMARCA4; [2])
< 100 | > 90 | < 100 | > 90 | Cc1ncsc1-c1ccc([C@H](CCCCCN2CCC(c3ccc4c(c3)-n3c(nc(=O)c5c(Br)cccc53)C43CCCCC3)CC2)NC(=O)[C@H]2C[C@H](O)CN2C(=O)[C@@H](n2cc(C3CC3)nn2)C(C)(C)C)cc1 [Compound A36, (2R,4S)—N—((S)-6-(4-(4′-bromo-5′-oxo-5′H-spiro[cyclohexane-1,7′-indolo[1,2-a]quinazolin]-10′-yl)piperidin-1-yl)-1-(4-(4-methylthiazol-5-yl)phenyl)hexyl)-1-((S)-2-(4-cyclopropyl-1H-1,2,3-triazol-1-yl)-3,3-dimethylbutanoyl)-4-hydroxypyrrolidine-2-carboxamide] |  |  |  |  | 
< 100 | > 90 | < 100 | > 90 | Cc1ncsc1-c1ccc([C@H](CCCCCN2CCC(c3ccc4c(n3)-n3c(nc(=O)c5c(Br)cccc53)C43CCCCC3)CC2)NC(=O)[C@H]2C[C@H](O)CN2C(=O)[C@@H](n2cc(C3CC3)nn2)C(C)(C)C)cc1 [Compound A37, (2R,4S)—N—((S)-6-(4-(4′-bromo-5′-oxo-5′H-spiro[cyclohexane-1,7′-pyrido[3′,2′: 4,5]pyrrolo[1,2-a]quinazolin]-10′-yl)piperidin-1-yl)-1-(4-(4-methylthiazol-5-yl)phenyl)hexyl)-1-((S)-2-(4-cyclopropyl-1H-1,2,3-triazol-1-yl)-3,3-dimethylbutanoyl)-4-hydroxypyrrolidine-2-carboxamide] |  |  |  |  | 
< 100 | > 90 | 100 to 500 | 70 to 90 | Cc1ncsc1-c1ccc([C@H](CCCCCN2CCC(c3ccc4c(c3)C3(CCCCC3)c3nc(=O)c5c(Br)cccc5n3-4)CC2)NC(=O)[C@H]2C[C@H](O)CN2C(=O)[C@@H](NC(=O)C2(CN3CCOCC3)CC2)C(C)(C)C)cc1 [Compound A38, (2R,4S)—N—((S)-6-(4-(4′-bromo-5′-oxo-5′H-spiro[cyclohexane-1,7′-indolo[1,2-a]quinazolin]-9′-yl)piperidin-1-yl)-1-(4-(4-methylthiazol-5-yl)phenyl)hexyl)-1-((S)-3,3-dimethyl-2-(1-(morpholinomethyl)cyclopropane-1-carboxamido)butanoyl)-4-hydroxypyrrolidine-2-carboxamide] |  |  |  |  | 
< 100 | > 90 | < 100 | > 90 | Cc1ncsc1-c1ccc([C@H](C)NC(=O)[C@@H]2C[C@@H](O)CN2C(=O)[C@@H](NC(=O)CN2CCC(c3ccc4c(c3)-n3c(nc(=O)c5c(Cl)cccc53)C43CCCCC3)CC2)C(C)(C)C)cc1 [Compound A39, (2S,4R)-1-((S)-2-(2-(4-(4′-chloro-5′-oxo-5′H-spiro[cyclohexane-1,7′-indolo[1,2-a]quinazolin]-10′-yl)piperidin-1-yl)acetamido)-3,3-dimethylbutanoyl)-4-hydroxy-N—((S)-1-(4-(4-methylthiazol-5-yl)phenyl)ethyl)pyrrolidine-2-carboxamide] |  |  |  |  | 

Second part, the molecule before the results:

Structure (SMILES) | DC50 (SMARCA2; [1]) [nM] | Dmax (SMARCA2; [1]) [%] | DC50 (SMARCA4; [2]) [nM] | Dmax (SMARCA4; [2]) [%] | Dmax (SMARCA2; HeLa) [%] | DC50 (SMARCA2) [nM] | Dmax (SMARCA4; HeLa) [%] | DC50 (SMARCA4) [nM] | SMARC A4 Hela HiBit DC50(nM) (SMARCA4; [2])
Cc1ncsc1-c1ccc([C@H](C)NC(=O)[C@@H]2C[C@@H](O)CN2C(=O)[C@@H](n2cc([C@H]3CC[C@H](CN4CCC(c5ncc6c(n5)-n5c(nc(=O)c7c(Br)cccc75)C65CCCCC5)CC4)CC3)nn2)C(C)(C)C)cc1 [Compound A31, (2S,4R)-1-((S)-2-(4-((1r,4S)-4-((4-(4′-bromo-5′-oxo-5′H-spiro[cyclohexane-1,7′-pyrimido[5′,4′: 4,5]pyrrolo[1,2-a]quinazolin]-10′-yl)piperidin-1-yl)methyl)cyclohexyl)-1H-1,2,3-triazol-1-yl)-3,3-dimethylbutanoyl)-4-hydroxy-N—((S)-1-(4-(4-methylthiazol-5-yl)phenyl)ethyl)pyrrolidine-2-carboxamide] | > 1000 | < 50 | > 1000 | 50 to 69 |  |  |  |  | 
Cc1ncsc1-c1ccc([C@H](CN2CCOCC2)NC(=O)[C@@H]2C[C@@H](O)CN2C(=O)[C@@H](n2cc([C@H]3CC[C@H](CN4CCC(c5ncc6c(n5)-n5c(nc(=O)c7c(Br)cccc75)C65CCCCC5)CC4)CC3)nn2)C(C)(C)C)cc1 [Compound A32, (2S,4R)-1-((S)-2-(4-((1r,4S)-4-((4-(4′-bromo-5′-oxo-5′H-spiro[cyclohexane-1,7′-pyrimido[5′,4′: 4,5]pyrrolo[1,2-a]quinazolin]-10′-yl)piperidin-1-yl)methyl)cyclohexyl)-1H-1,2,3-triazol-1-yl)-3,3-dimethylbutanoyl)-4-hydroxy-N—((R)-1-(4-(4-methylthiazol-5-yl)phenyl)-2-morpholinoethyl)pyrrolidine-2-carboxamide] | > 1000 | < 50 | > 1000 | 70 to 90 |  |  |  |  | 
Cc1ncsc1-c1ccc([C@H](Cn2cc([C@H]3CC[C@H](CN4CCC(c5ccc6c(c5)C5(CCCCC5)c5nc(=O)c7c(Br)cccc7n5-6)CC4)CC3)nn2)NC(=O)[C@@H]2C[C@@H](O)CN2C(=O)[C@@H](NC(=O)C2(F)CC2)C(C)(C)C)cc1 [Compound A33, (2S,4R)—N—((R)-2-(4-((1r,4R)-4-((4-(4′-bromo-5′-010-5′H-spiro[cyclohexane-1,7′-indolo[1,2-a]quinazolin]-9′-yl)piperidin-1-yl)methyl)cyclohexyl)-1H-1,2,3-triazol-1-yl)-1-(4-(4-methylthiazol-5-yl)phenyl)ethyl)-1-((S)-2-(1-fluorocyclopropane-1-carboxamido)-3,3-dimethylbutanoyl)-4-hydroxypyrrolidine-2-carboxamide] | < 100 | > 90 | 100 to 500 | 70 to 90 |  |  |  |  | 
Cc1ncsc1-c1ccc([C@H](Cn2cc([C@H]3CC[C@H](CN4CCC(c5ccc6c(n5)-n5c(nc(=O)c7c(Br)cccc75)C65CCCCC5)CC4)CC3)nn2)NC(=O)[C@@H]2C[C@@H](O)CN2C(=O)[C@@H](NC(=O)C2(F)CC2)C(C)(C)C)cc1 [Compound A34, (2S,4R)—N—((R)-2-(4-((1r,4R)-4-((4-(4′-bromo-5′-oxo-5′H-spiro[cyclohexane-1,7′-pyrido[3′,2′: 4,5]pyrrolo[1,2-a]quinazolin]-10′-yl)piperidin-1-yl)methyl)cyclohexyl)-1H-1,2,3-triazol-1-yl)-1-(4-(4-methylthiazol-5-yl)phenyl)ethyl)-1-((S)-2-(1-fluorocyclopropane-1-carboxamido)-3,3-dimethylbutanoyl)-4-hydroxypyrrolidine-2-carboxamide] | 501 to 1000 | 50 to 69 | > 1000 | < 50 |  |  |  |  | 
Cc1ncsc1-c1ccc([C@H](CCCCCN2CCC(c3ccc4c(c3)C3(CCCCC3)c3nc(=O)c5c(Br)cccc5n3-4)CC2)NC(=O)[C@H]2C[C@H](O)CN2C(=O)[C@@H](n2cc(C3CC3)nn2)C(C)(C)C)cc1 [Compound A35, (2R,4S)—N—((S)-6-(4-(4′-bromo-5′-oxo-5′H-spiro[cyclohexane-1,7′-indolo[1,2-a]quinazolin]-9′-yl)piperidin-1-yl)-1-(4-(4-methylthiazol-5-yl)phenyl)hexyl)-1-((S)-2-(4-cyclopropyl-1H-1,2,3-triazol-1-yl)-3,3-dimethylbutanoyl)-4-hydroxypyrrolidine-2-carboxamide] | < 100 | > 90 | < 100 | > 90 |  |  |  |  | 
Cc1ncsc1-c1ccc([C@H](C)NC(=O)[C@@H]2C[C@@H](O)CN2C(=O)[C@@H](NC(=O)CN2CCC(c3ccc4c(c3)-n3c(nc(=O)c5c(Br)cccc53)C43CCCCC3)CC2)C(C)(C)C)cc1 [Compound A40, (2S,4R)-1-((S)-2-(2-(4-(4′-bromo-5′-oxo-5′H-spiro[cyclohexane-1,7′-indolo[1,2-a]quinazolin]-10′-yl)piperidin-1-yl)acetamido)-3,3-dimethylbutanoyl)-4-hydroxy-N—((S)-1-(4-(4-methylthiazol-5-yl)phenyl)ethyl)pyrrolidine-2-carboxamide] |  |  |  |  | > 90 | < 100 | > 90 | < 100 | 
Cc1ncsc1-c1ccc([C@H](C)NC(=O)[C@@H]2C[C@@H](O)CN2C(=O)[C@@H](NC(=O)[C@H]2CC[C@H](CN3CCC(c4ccc5c(c4)-n4c(nc(=O)c6c(Br)cccc64)C54CCCCC4)CC3)CC2)C(C)(C)C)cc1 [Compound A41, (2S,4R)-1-((S)-2-((1r,4S)-4-((4-(4′-bromo-5′-oxo-5′H-spiro[cyclohexane-1,7′-indolo[1,2-a]quinazolin]-10′-yl)piperidin-1-yl)methyl)cyclohexane-1-carboxamido)-3,3-dimethylbutanoyl)-4-hydroxy-N—((S)-1-(4-(4-methylthiazol-5-yl)phenyl)ethyl)pyrrolidine-2-carboxamide] | < 100 |  |  |  | 70 to 90 |  | < 50 |  | No Fit
